In patent US20220274997A1, “PIM KINASE INHIBITOR COMPOSITIONS AND USES THEREOF” (Snap Bio, Inc., priority 2019, published 2022):
“And” between values parts separate entries of the source, which are not always exact repeats. Identical values can stand only once.

Tests used:
PIM2 = target: T1, PIM2 (Homo sapiens, UniProt Q9P1W9); assay: Biochemical radiolabeled ATP kinase assay (Reaction Biology), PIM2; conditions: 10 μM ATP
T1 construct: purchased ProQinase, Freiburg, Germany 0223-0000-1
From the text: Two different assays for measuring kinase inhibitor activity were employed for messing the effectiveness of compounds of the present disclosure for inhibiting PIM kinases. […] The second assay used was Perkin Elmer's LANCE® Ultra kinase assay which uses a ULight™-labeled peptide substrate and an appropriate Europium-labeled anti-phospho antibody. When the substrate becomes phosphorylated by a kinase of interest, the phosphorylated site on the substrate is recognized by the Europium-labeled anti-phospho antibody. […]
(§1) The standard protocol used for PIM3 was performed by Reaction Biology Corporation (Malvern, Pa.) using a capture assay performed in 20 mM HEPES at pH 7.5 containing 10 mM MgCl2, 10 mM MnCl2, 1 mM EGTA, 0.02% Brij35, 0.02 mg/mL BSA, 0.1 mM Na3VO4, 2 mM DTT, 0.02% Brij35, 10 μM ATP, and 20 μM peptide substrate […]. […] The bound ^33P-peptide substrate was quantified by scintillation counting and the disintegrations per minute (dpm) obtained, being directly proportional to the amount of ^33P-peptide produced by PIM3, were used to determine the IC50 for each compound. […]
The inhibitory activity of each compound against PIM kinases was measured with the radioisotope filter binding assay, a type of substrate phosphorylation assays, available at Reaction Biology Corporation (Mavern, Pa.). […]

PIM1 [1] = target: T2, PIM1 (Homo sapiens, UniProt P11309); assay: Biochemical radiolabeled ATP kinase assay (Reaction Biology), PIM1; conditions: 10 μM ATP
T2 construct: purchased ProQinase, Freiburg, Germany 0186-0000-1
T2 sequence (P11309 whole entry): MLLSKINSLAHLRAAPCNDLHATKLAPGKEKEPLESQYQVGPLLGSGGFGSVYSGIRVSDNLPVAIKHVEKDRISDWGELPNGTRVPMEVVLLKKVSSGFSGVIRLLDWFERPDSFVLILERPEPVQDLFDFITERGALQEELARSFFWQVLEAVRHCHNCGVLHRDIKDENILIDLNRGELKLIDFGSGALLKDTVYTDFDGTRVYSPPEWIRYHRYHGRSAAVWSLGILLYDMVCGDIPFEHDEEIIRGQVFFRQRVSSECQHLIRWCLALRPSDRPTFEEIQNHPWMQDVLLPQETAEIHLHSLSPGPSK
From the text: The second assay used was Perkin Elmer's LANCE® Ultra kinase assay which uses a ULight™-labeled peptide substrate and an appropriate Europium-labeled anti-phospho antibody. When the substrate becomes phosphorylated by a kinase of interest, the phosphorylated site on the substrate is recognized by the Europium-labeled anti-phospho antibody. […] The intensity of light emission is proportional to the level of ULight peptide phosphorylation. A kinase inhibitor reduces the FRET signal, thus providing an accurate and sensitive measure of inhibition potency. […]
as §1
(§2) The inhibitory activity of each compound against PIM kinases was measured with the radioisotope filter binding assay, a type of substrate phosphorylation assays, available at Reaction Biology Corporation (Mavern, Pa.).

PIM3 = target: T3, PIM3 (Homo sapiens, UniProt Q86V86); assay: Biochemical radiolabeled ATP kinase assay (Reaction Biology), PIM3; conditions: for IC50: 10 μM ATP
T3 construct: purchased SignalChem, Richmond, Canada P37-10BG
From the text: (§3) The second assay used was Perkin Elmer's LANCE® Ultra kinase assay which uses a ULight™-labeled peptide substrate and an appropriate Europium-labeled anti-phospho antibody. When the substrate becomes phosphorylated by a kinase of interest, the phosphorylated site on the substrate is recognized by the Europium-labeled anti-phospho antibody. […] The intensity of light emission is proportional to the level of ULight peptide phosphorylation. A kinase inhibitor reduces the FRET signal, thus providing an accurate and sensitive measure of inhibition potency.
The basic biochemical assay employs radiolabeled ATP to measure the kinase-catalyzed transfer of radioactive phosphorus to a tyrosine-containing peptide substrate, according to the general equation: […]
Reaction: Substrate+[γ-^33P]−ATP→^33P-Substrate+ADP
The standard protocol used for PIM3 was performed by Reaction Biology Corporation (Malvern, Pa.) using a capture assay performed in 20 mM HEPES at pH 7.5 containing 10 mM MgCl2, 10 mM MnCl2, 1 mM EGTA, 0.02% Brij35, 0.02 mg/mL BSA, 0.1 mM Na3VO4, 2 mM DTT, 0.02% Brij35, 10 μM ATP, and 20 μM peptide substrate […]. […] Reagents were combined and incubation at 30° C. for 30 min, the reaction was initiated by adding [γ-^33P]-ATP (10 ρCi/mL [γ-^33P]-ATP) and incubated for 2 h at 30° C. The reaction was then terminated by the addition of one-third volume of stop reagent (0.25 mM EDTA and 33 mM ATP in dH20). A […] aliquot was removed, spotted onto a P-81 filternat ion exchange paper and washed sequentially with 10% (w/v) chloroacetic acid and dH20 to remove ATP. The bound ^33P-peptide substrate was quantified by scintillation counting and the disintegrations per minute (dpm) obtained, being directly proportional to the amount of ^33P-peptide produced by PIM3, were used to determine the IC50 for each compound. […]
as §2

PIM1 [2] = target: T2, PIM1; assay: LANCE Ultra kinase assay, PIM1; type: biochemical
From the text: as §3
The assay was performed in 384-well plates in two steps: PIM kinases were mixed with the ULight-substrate (CREBtide) in buffer and incubated for 10 min. Subsequently, ATP and molecules of the present disclosure were added in a kinase buffer at the appropriate concentration and the reactions were incubated for 1 hour, at room temperature in the dark. • After 1 h EDTA was added to stop the kinase reaction, Eu-W1024-labeled anti-phosphoserine-CREB (Ser133) Antibody (anti-phosphoCREBtide specific antibody) was added to the reaction in LANCE Detection buffer. The mixture was allowed to incubate for 30 min to allow binding of the antibody to the phosphorylated site before the plate was read using a Tecan microplate reader
Kinase Assay Buffer—50 mM HEPES pH7.0.1 mM EGTA, 10 mM MgCl2, 0.01% BRU-35.
The inhibitory activity of each compound against PIM kinases was measured with the LANCE® Ultra Kinase Assays by ChemDiv, Inc. (San Diego, Calif.).

A673 = assay: CellTiter-Glo cancer cell growth inhibition, A673; type: cell-based; conditions: Homo sapiens, A673, 72 h
From the text: (§4) The CellTiter-Glo® Luminescent Cell Viability Assay is a sensitive homogeneous method to determine the number of viable cells in culture, Detection is based on using the luciferase reaction to measure the amount of ATP from viable cells. The amount of ATP in cells correlates with cell viability. Within minutes after a loss of membrane integrity, cells lose the ability to synthesize ATP, and endogenous ATPases destroy any remaining ATP; thus the levels of ATP fall precipitously. The CellTiter-Glo® Reagent does three things upon addition to cells. It lyses cell membranes to release ATP; it inhibits endogenous ATPases, and it provides luciferin, luciferase and other reagents necessary to measure ATP using a bioluminescent reaction. The unique properties of a proprietary stable luciferase.
(§5) All assays were performed by Reaction Biology Corporation (Malvern, Pa.) or ChemDiv, Inc. (San Diego, Calif.). All cell lines were purchased from American Type Culture Collection (ATCC, Manassas, Va.), except Huh 7 (RIKEN, Toyo, Japan) and HepaRG (Life Technologies, Carlsbad, Calif.).
(§6) Stock solutions ([…]) were diluted with cell culture media to produce 500× serial dilutions and […] of final compound dilutions were added to cells in assay plates to screen a series of 10 doses starting at […]. Final DMSO concentration was 0.2%. Assay plates are centrifuged at 100 rpm, 1 minute and kept at 37° C., 5% CO2, humidified atmosphere. […] Luminescence intensity was measured for each well using the Tecan M 1000 microplate reader after 5 min of incubation with CellTiter-Glo Reagent. The number of viable cells in culture was determined based on quantitation of the ATP present in each culture well. […] The EC50 curves were plotted and […] values were calculated using the GraphPad Prism 4 program based on a sigmoidal dose-response equation.

HepaRG = assay: CellTiter-Glo cancer cell growth inhibition, HepaRG; type: cell-based; conditions: Homo sapiens, 72 h
From the text: as §4, §5, §6

T1 sequence (Q9P1W9 whole entry): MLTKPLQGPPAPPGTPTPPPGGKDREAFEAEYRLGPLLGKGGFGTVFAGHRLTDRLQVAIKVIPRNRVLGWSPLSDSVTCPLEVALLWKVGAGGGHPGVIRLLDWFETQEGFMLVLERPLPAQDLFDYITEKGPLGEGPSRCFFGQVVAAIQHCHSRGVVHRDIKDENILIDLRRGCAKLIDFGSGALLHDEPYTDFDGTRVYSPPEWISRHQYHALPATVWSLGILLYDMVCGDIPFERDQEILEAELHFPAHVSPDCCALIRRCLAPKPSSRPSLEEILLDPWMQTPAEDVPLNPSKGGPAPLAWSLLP

IC50 (PIM2)	IC50 (PIM1 [1])	Selectivity among PIM1-3 (IC50 plots, FIGS. 1A-1C) (PIM3)	IC50 (PIM3)	IC50 (PIM1 [2]; ATP 1 mM)	EC50 (A673)	EC50 (HepaRG)	IC50 (PIM1 [2]; ATP 0.1 mM)	Compound
7 nM and 7.4 nM	1.8 nM	PIM3 selectivity	0.25 nM	1.7 nM				O=C1NC(=O)c2c1c1c3cc(F)c(O)cc3[nH]c1c1c2c2ccccc2n1CCN1CCOCC1 [Compound 18, 3-fluoro-2-hydroxy-12-(2-morpholin-4-ylethyl)-12,13-dihydro-5H-indolo[2,3-a]pyrrolo[3,4-c]carbazole-5,7(6H)-dione]
6.7 nM	0.98 nM		0.2 nM	0.82 nM	10 nM	48 nM	0.23 nM	O=C1NC(=O)c2c1c1c3ccccc3[nH]c1c1c2c2cc(F)c(O)cc2n1CCN1CCOCC1 [Compound 19, 3-fluoro-2-hydroxy-13-(2-morpholin-4-ylethyl)-12,13-dihydro-5H-indolo[2,3-a]pyrrolo[3,4-c]carbazole-5,7(6H)-dione]
